Consider eleven molecules from US20030023101A1, “Method for production of maleic anhydride” (priority 2001, published 2003).

Data set [1] is described as follows: Maximum dissolving concentration of maleic acid in the solvent (Referential Example 2). The format is physicochemical. The following applies: maleic acid as solute in 80 g solvent, 20° C., insoluble = residue even at 0.01 g. The protocol: (§1) In a tightly closable glass vessel measuring 100 ml in inner volume and furnished with a lid, 80 g of a given solvent kept at a temperature of 20° C. was placed and stirred with a stirrer and meanwhile maleic acid or fumaric acid of the special reagent grade as defined in the paragraph covering the determination of maximum dissolution concentration was added to the stirred solvent. The state of solution consequently assumed was visually confirmed. When the solute left any residue behind in the solution even after one hour's stirring, the sample was reported as insoluble. When the residue of the solute was found, the confirmation of the maximum dissolving concentration mentioned above was repeated, with the quantity of addition per round decreased. The minimum quantity of addition was set at 0.01 g. Thus, the maximum quantity of dropwise addition (weight of solute) which was recognized to have given rise to no residue of elute was determined and computed as the maximum dissolution concentration in 80 g of a given solvent. Specifically, the magnitude found by the following formula,
(§2) Maximum dissolving concentration (% by weight)={Solute/(Solute+Solvent)}×100
(§3) is the maximum dissolving concentration contemplated by this invention. When the elute left any residue behind in the solution even at the minimum quantity of dropwise addition of 0.01 g ([…]), the sample was reported as insoluble. Incidentally, the maximum dissolution concentration was measured at a solution temperature of 20° C.

Data set [2] can be described thus: Maximum dissolving concentration of organic solvent in water (Referential Example 1). The following applies: solvent as solute in 80 g purified water, 20° C., visual observation. The format is physicochemical. The protocol:
One species of organic solvent or a mixture of two or more species of solvent to be used in this invention was selected by the following method. In a tightly closable glass vessel measuring 100 ml in inner volume and furnished with a lid, 80 g of purified water kept at a temperature of 20° C. was placed and stirred with a stirrer and meanwhile a given organic solvent or solvent mixture was added dropwise to the stirred water. The state of solution consequently assumed after one hour's standing was visually observed. When any residue of the solute was found in the solution, the confirmation of the solubility mentioned above was repeated, with the quantity of dropwise addition per round decreased. The minimum quantity of the organic solvent or the solvent mixture as the solute to be used for the dropwise addition was set at 0.02 g. […] Specifically, the magnitude found by the following formula,
as §2
is the maximum dissolving concentration contemplated by this invention. […] The present example concerns computation of the maximum dissolving concentration of a given solute in 80 g of a solvent in accordance with the formula mentioned above. The maximum dissolving concentration was determined at a solution temperature of 20° C. Incidentally, when two or more species of organic solvent are mixed and used in the distillation for azeotropic dehydration, the maximum dissolving concentration of the mixture is determined by the method described above.

For data set [3] the following is noted: 20° C., normal pressure (1013 hPa); Chemical Handbook (Maruzen), Beilstein Online; cited from earlier work.
Data set [4] in a line: Maximum dissolving concentration of fumaric acid in the solvent (Referential Example 2). The format is physicochemical. The following applies: fumaric acid as solute in 80 g solvent, 20° C., insoluble = residue even at 0.01 g. On the procedure:
as §1, §2, §3

Regarding `CC(=O)CC(C)C` [MIBK, methyl isobutylketone], the “Maximum dissolving concentration in solvent, Maleic acid” value in data set [1] came to 4.14 % by weight. The “Maximum dissolving concentration in water” value in data set [2] was 1.85 % by weight. Besides, the “Maximum dissolving concentration of the azeotropic solvent (1) in water” value (“Maximum dissolving concentration … (1) in water” below) in data set [3] is listed as 1.91 % by weight. For the same molecule, the “Maximum dissolving concentration in solvent, Fumaric acid” value in data set [4] was found to be 0.14 % by weight.
Regarding `CC(C)C(=O)C(C)C` [DIPK, diisopropylketone], in data set [1], the “Maximum dissolving concentration in solvent, Maleic acid” value worked out at 1.22 % by weight. In addition, the “Maximum dissolving concentration in water” value in data set [2] was found to be 0.41 % by weight. The “Maximum dissolving concentration … (1) in water” value in data set [3] is 0.43 % by weight. In data set [4], the “Maximum dissolving concentration in solvent, Fumaric acid” value stood at 0.02 % by weight.
For `CCCCCOC(C)=O` [amyl acetate], the “Maximum dissolving concentration … (1) in water” value in data set [3] is given as 0.25 % by weight.
For the molecule `Cc1ccccc1C` [o-Xylene, o-xylene], the “Maximum dissolving concentration in solvent, Maleic acid” value in data set [1] is given as “Insoluble”; in data set [1] (listed as o-xylene), “did not dissolve”. Moreover, the figures for the “Maximum dissolving concentration in water” value in data set [2] and in data set [2] (listed as o-xylene) were 0.02 % by weight and “low solubility in water”, respectively. In addition, the “Maximum dissolving concentration in solvent, Fumaric acid” value in data set [4] is given as “Insoluble”; in data set [4] (listed as o-xylene) it was “did not dissolve”.
As to `CCCC(=O)CC` [3-hexnaone], the “Maximum dissolving concentration … (1) in water” value in data set [3] is recorded as 1.57 % by weight.
For the molecule `CCC(=O)CC` [3-pentanone], in data set [3], the “Maximum dissolving concentration … (1) in water” value is given as 4.6 % by weight.
On to `CCCCC(C)=O` [2-hexanone], for which the “Maximum dissolving concentration … (1) in water” value in data set [3] was 1.75 % by weight.
As for `CCCCC(CC)CO` (stereo not drawn) [2-ethyl-1-hexnol], in data set [3], the “Maximum dissolving concentration … (1) in water” value is recorded as 0.10 % by weight.
Turning to `C=CCOC(C)=O` [allyl acetate], the “Maximum dissolving concentration … (1) in water” value in data set [3] was 2.8 % by weight.
Consider `CCCCCC(C)=O` [2-heptanone], for which the “Maximum dissolving concentration … (1) in water” value in data set [3] is reported as 0.44 % by weight.
Take `CC(C)CC(=O)CC(C)C` [DIBK, diisobutyl ketone]: the “Maximum dissolving concentration in solvent, Maleic acid” value in data set [1] is 0.62 % by weight. For the same molecule, the “Maximum dissolving concentration in water” value in data set [2] is listed as 0.05 % by weight. For the same molecule, the “Maximum dissolving concentration in solvent, Fumaric acid” value in data set [4] is recorded as “Insoluble”.
